Measurements from the OligoGym collection.
“And” between values parts separate entries of the source, which are not always exact repeats. Equal entries are not always repeated. HELM strings list units from the 5' end as sugar, base in round brackets, then linkage (d deoxyribose, r ribose, m 2'-O-methyl, p phosphodiester). Methylation of C is not given here. [moe] = 2'-O-(2-methoxyethyl) (MOE); [cEt] = constrained ethyl (cEt); [sp] = phosphorothioate linkage

Biological target: HBV
Conditions: ASO

Substance | target mRNA inhibition (HepG2, 0.07 µM) | further results
RNA1{[moe](A)[sp].[moe](A)[sp].[moe](T)[sp].[moe](T)[sp].d(T)[sp].d(A)[sp].d(T)[sp].d(G)[sp].d(C)[sp].d(C)[sp].d(T)[sp].d(A)[sp].d(C)[sp].[moe](A)[sp].[moe](G)[sp].[moe](C)}$$$$V2.0 | 38% and 34% | 
RNA1{[moe](A)[sp].[cEt](A)[sp].d(G)[sp].d(C)[sp].d(G)[sp].d(A)[sp].d(A)[sp].d(G)[sp].d(T)[sp].d(G)[sp].d(C)[sp].d(A)[sp].[cEt](C)[sp].[moe](A)[sp].[cEt](C)[sp].[moe](G)}$$$$V2.0 | 82% and 75% | target mRNA inhibition (HepG2, 0.0092593 µM): 20%; target mRNA inhibition (HepG2, 0.0277778 µM): 40%; target mRNA inhibition (HepG2, 0.0833333 µM): 75%; target mRNA inhibition (HepG2, 0.25 µM): 89%
RNA1{[moe](G)[sp].[moe](A)[sp].[moe](A)[sp].[moe](C)[sp].[moe](T)[sp].d(G)[sp].d(G)[sp].d(A)[sp].d(G)[sp].d(C)[sp].d(C)[sp].d(A)[sp].d(C)[sp].d(C)[sp].[moe](A)[sp].[moe](G)}$$$$V2.0 | 46% and 39% | 
RNA1{[moe](T)[sp].[moe](C)[sp].[moe](C)[sp].d(A)[sp].d(C)[sp].d(C)[sp].d(A)[sp].d(C)[sp].d(G)[sp].d(A)[sp].d(G)[sp].d(T)[sp].d(C)[sp].[cEt](T)[sp].[cEt](A)[sp].[cEt](G)}$$$$V2.0 | 42% and 67% | 
RNA1{[moe](G)[sp].[moe](A)[sp].[moe](G)[sp].d(G)[sp].d(T)[sp].d(G)[sp].d(A)[sp].d(A)[sp].d(G)[sp].d(C)[sp].d(G)[sp].d(A)[sp].[moe](A)[sp].[moe](G)[sp].[moe](T)[sp].[moe](G)}$$$$V2.0 | 57% and 54% | 
RNA1{[moe](A)[sp].[moe](G)[sp].d(A)[sp].d(A)[sp].d(G)[sp].d(T)[sp].d(C)[sp].d(C)[sp].d(A)[sp].d(C)[sp].d(C)[sp].[moe](A)[sp].[moe](C)[sp].[moe](G)[sp].[moe](A)[sp].[moe](G)[sp].[moe](T)}$$$$V2.0 | 62% and 49% | 
RNA1{[moe](A)[sp].[moe](C)[sp].[moe](T)[sp].d(G)[sp].d(G)[sp].d(A)[sp].d(G)[sp].d(C)[sp].d(C)[sp].d(A)[sp].d(C)[sp].d(C)[sp].[moe](A)[sp].[moe](G)[sp].[moe](C)[sp].[moe](A)}$$$$V2.0 | 53% and 72% | target mRNA inhibition (HepG2, 0.0092593 µM): 4%; target mRNA inhibition (HepG2, 0.0277778 µM): 23%; target mRNA inhibition (HepG2, 0.0833333 µM): 46%; target mRNA inhibition (HepG2, 0.25 µM): 56%
RNA1{[moe](A)[sp].[moe](C)[sp].d(C)[sp].d(A)[sp].d(C)[sp].d(T)[sp].d(G)[sp].d(A)[sp].d(A)[sp].d(C)[sp].d(A)[sp].[moe](A)[sp].[moe](A)[sp].[moe](T)[sp].[moe](G)[sp].[moe](G)}$$$$V2.0 | 43% and 44% | 
RNA1{[moe](C)[sp].[moe](C)[sp].[moe](G)[sp].d(C)[sp].d(A)[sp].d(G)[sp].d(T)[sp].d(A)[sp].d(T)[sp].d(G)[sp].d(G)[sp].d(A)[sp].[moe](T)[sp].[moe](C)[sp].[moe](G)[sp].[moe](G)[sp].[moe](C)}$$$$V2.0 | 86% and 73% | 
RNA1{[moe](T)[sp].[cEt](A)[sp].[cEt](G)[sp].d(G)[sp].d(C)[sp].d(A)[sp].d(G)[sp].d(A)[sp].d(G)[sp].d(G)[sp].d(T)[sp].d(G)[sp].d(A)[sp].[cEt](A)[sp].[cEt](A)[sp].[moe](A)}$$$$V2.0 | 31% and 28% | 
RNA1{[moe](A)[sp].[moe](C)[sp].[moe](G)[sp].d(G)[sp].d(G)[sp].d(C)[sp].d(A)[sp].d(A)[sp].d(C)[sp].d(A)[sp].d(T)[sp].d(A)[sp].d(C)[sp].[cEt](C)[sp].[cEt](T)[sp].[cEt](T)}$$$$V2.0 | 43% and 40% | 
RNA1{[moe](A)[sp].[moe](A)[sp].[moe](T)[sp].d(T)[sp].d(T)[sp].d(A)[sp].d(T)[sp].d(G)[sp].d(C)[sp].d(C)[sp].d(T)[sp].d(A)[sp].d(C)[sp].[cEt](A)[sp].[cEt](G)[sp].[cEt](C)}$$$$V2.0 | 47% and 36% | 
